# Reference: patent US11744859B2, “Compositions and methods for parenteral administration of therapeutic agents” (EpicentRx, Inc., priority 2017, dated 2023)
# Columns and labels:
# [1] = in vivo; cited from earlier work
# [2] = system: human lung cancer cells A549; test: xenografted A549 lung tumor in mice, tumor volume; assay type: in vivo; settings: 50 mg/kg, twice in one week
# Protocol: FIG. 1 depicts activity of control, carboplatin (Carbo, 50 mg/kg), and whole blood mixed with carboplatin (Blood-mix-Carbo, either 50 mg/kg or 100 mg/kg) in treating xenografted A549 lung tumor, as measured by tumor volume after each treatment.
# In this example, human lung cancer cells A549 were xenografted to mice.
# [3] = system: human colorectal HT-29 cancer cells; settings: 5 mg/kg, twice a week for three weeks
# Text: In this example, human colorectal HT-29 cancer cells will be xenografted to mice.
# [4] = system: human HT-29 colorectal cancer cells; test: xenografted HT-29 colorectal tumor in mice, tumor volume; assay type: in vivo; settings: 12 mg/kg, one time
# Protocol: FIG. 5 depicts activity of control, oxaliplatin (L-OHP, 12 mg/kg), and whole blood mixed with oxaliplatin (Blood-mix-L-OHP, either 12 mg/kg or 24 mg/kg) in treating xenografted HT-29 colorectal tumor, as measured by tumor volume over time (0-40 days) after each treatment.
# [5] = system: sepsis model mice (CLP); test: CLP sepsis model mice: survival and live bacterial count in blood; assay type: in vivo, BALB/c mice; settings: 24 hour blood samples from septic mice; 25 mg/kg
# Protocol: Sepsis model: twenty BALB/c mice (Jackson Labs; 6-8 weeks) were made septic by CLP. Briefly, mice were anesthetized isoflurane (5% induction and 2% maintenance), and subjected to laparotomy. The cecum was exteriorized and ligated distal to the ileocecal valve without causing intestinal obstruction. The cecum was then punctured twice with either a 21 gauge needle, and stool was gently extruded. Lastly, the abdomen was closed 1 mL of saline was injected.
# [6] = system: human breast carcinoma cells MCF7; test: orthotopically implanted MCF7 human breast carcinoma in mice, tumor volume; assay type: in vivo, athymic mice (nu/nu); settings: either 10 mg/kg or 30 mg/kg, twice per week
# Protocol: (§1) 6-week-old-female athymic mice (nu/nu) were implanted orthotopically with 1×10^7 cells/mL human breast carcinoma cells MCF7 or MCF/Taxol (Taxol resistance line) into their mammary fat pad. […] The treatments started when tumors were 100 mm^3. The paclitaxel blood mixes were prepared by incubating whole blood with paclitaxel and an anticoagulant (CPD) for 30 minutes.
# [7] = system: MCF7/Taxol (Taxol resistance line); test: orthotopically implanted MCF7/Taxol human breast carcinoma in mice, tumor volume; assay type: in vivo, athymic mice (nu/nu); settings: either 10 mg/kg or 30 mg/kg, twice per week
# Protocol: as §1
smiles,measurement,setting,value
O=P1(N(CCCl)CCCl)NCCCO1 (stereo not drawn) [Cyclophosphamide],elimination time of the drug,[1],3 to 12 h
N.N.O=C([O-])C1(C(=O)[O-])CCC1.[Pt+2] [carboplatin],tumor volume compared to control,[2],tumor volume was reduced
COc1cccc2c1C(=O)c1c(O)c3c(c(O)c1C2=O)C[C@@](O)(C(=O)CO)C[C@@H]3O[C@H]1C[C@H](N)[C@H](O)[C@H](C)O1 [doxorubicin],tumor volume compared to control,[3],tumor volume is reduced
O=C1[O][Pt]2([NH][C@@H]3CCCC[C@H]3[NH]2)[O]C1=O [oxaliplatin],tumor volume compared to control,[4],tumor volume was reduced
CC[C@@]1(O)C(=O)OCc2c1cc1n(c2=O)Cc2cc3c(CN(C)C)c(O)ccc3nc2-1 [Topotecan],elimination time of the drug,[1],2 to 3 h
O=P1(NCCCl)OCCCN1CCCl (stereo not drawn) [ifosfamide],elimination time of the drug,[1],7 to 15 h
C[C@@H](O)[C@H]1C(=O)N2C(C(=O)O)=C(SCCN=CN)C[C@H]12 [imipenem],live bacterial count,[5],7.4±0.45 log CFU/mL
CC(=O)O[C@H]1C(=O)[C@@]2(C)[C@H]([C@H](OC(=O)c3ccccc3)[C@]3(O)C[C@H](OC(=O)[C@H](O)[C@@H](NC(=O)c4ccccc4)c4ccccc4)C(C)=C1C3(C)C)[C@]1(OC(C)=O)CO[C@@H]1C[C@@H]2O [paclitaxel],tumor volume compared to control,[6],tumor volume was reduced
same,tumor volume compared to control,[7],tumor volume was reduced
